Test results taken from patent US20180273538A1, “PYRROLO[2,3-d]PYRIMIDINE DERIVATIVES, A PROCESS FOR THEIR PREPARATION AND PHARMACEUTICAL COMPOSITIONS CONTAINING THEM” (LES LABORATOIRES SERVIER, priority 2015, published 2018).

What follows are compounds tested against T1, His-TEV-DYRK1A Kinase domain (aa127-485) (Homo sapiens, UniProt Q13627) (assay: Kinase ADP assay (ADP Hunter Plus)).
T1 construct: His-TEV-DYRK1A Kinase domain (aa127-485); His (N); TEV cleavage site (N)
Type: biochemical
`Cc1nc(Nc2ccccc2C(F)(F)F)c2c(-c3cc(N)nc(N)c3)c[nH]c2n1` [Example 131, 4-(2-methyl-4-{[2-(trifluoromethyl)phenyl]amino}-7H-pyrrolo[2,3-d]pyrimidin-5-yl)pyridine-2,6-diamine] showed an IC50 of 0.6 µM.
In the case of `N#Cc1nc(NCc2c(F)cccc2F)c2c(-c3ccnc(N)c3)c[nH]c2n1` [Example 157, 5-(2-aminopyridin-4-yl)-4-[(2,6-difluorobenzyl)amino]-7H-pyrrolo[2,3-d]pyrimidine-2-carbonitrile], the IC50 is reported as 0.26 µM.
Compound `Cc1cc(-c2c[nH]c3nc(C)nc(OC[C@@H]4CCCNC4)c23)ccn1` [Example 6, 2-methyl-5-(2-methylpyridin-4-yl)-4-[(3R)-piperidin-3-ylmethoxy]-7H-pyrrolo[2,3-d]pyrimidine] has an IC50 of 0.07 µM.
For `Cc1nc(-c2cccc(OCCCN3CCCCC3)c2)c2c(-c3ccnc(N)c3)c[nH]c2n1` [Example 199], the IC50 was 0.148 µM.
Compound `Cc1nc(OCc2ccncc2)c2c(-c3ccnc(N)c3)c[nH]c2n1` [Example 23, 4-[2-methyl-4-(pyridin-4-ylmethoxy)-7H-pyrrolo[2,3-d]pyrimidin-5-yl]pyridin-2-amine] has an IC50 of 0.015 µM.
With `Cc1cc(-c2c[nH]c3nc(C)nc(NCc4ccccc4)c23)ccn1` [Example 43, N-benzyl-2-methyl-5-(2-methylpyridin-4-yl)-7H-pyrrolo[2,3-d]pyrimidin-4-amine] the IC50 was 0.278 µM.
Compound `Cc1nc(-c2cncc(F)c2)c2c(-c3ccnc(N)c3)c[nH]c2n1` [Example 170] has an IC50 of 1.82 µM.
With `Cc1nc(OCCN2CCCC2)c2c(-c3ccncc3)c[nH]c2n1` [Example 12, 2-methyl-5-(pyridin-4-yl)-4-[2-(pyrrolidin-1-yl)ethoxy]-7H-pyrrolo[2,3-d]pyrimidine] the IC50 was 2.04 µM.
For `Cc1nc(OCc2cccs2)c2c(-c3ccnc(N)c3)c[nH]c2n1` [Example 19, 4-[2-methyl-4-(thiophen-2-ylmethoxy)-7H-pyrrolo[2,3-d]pyrimidin-5-yl]pyridin-2-amine], the IC50 was 0.025 µM.
In the case of `Cc1nc(NCc2cc(-c3ccccc3)no2)c2c(-c3ccnc(N)c3)c[nH]c2n1` [Example 88, 5-(2-aminopyridin-4-yl)-2-methyl N-[(3-phenyl-1,2-oxazol-5-yl)methyl]-7H-pyrrolo[2,3-d]pyrimidin-4-amine], the IC50 is reported as 2.09 µM.
For `Cc1nc(N2CCc3nccnc3C2)c2c(-c3ccnc(N)c3)c[nH]c2n1` [Example 136, 4-[4-(7,8-dihydropyrido[3,4-b]pyrazin-6(5H)-yl)-2-methyl-7H-pyrrolo[2,3-d]primidin-5-yl]pyridin-2-amine], the IC50 was 0.169 µM.
With `Cc1nc(NCc2cc(C)on2)c2c(-c3ccncc3)c[nH]c2n1` [Example 46, 2-methyl-N-[(5-methyl-1,2-oxazol-3-yl)methyl]-5-(pyridin-4-yl)-7H-pyrrolo[2,3-d]pyrimidin-4-amine] the IC50 was 0.369 µM.
`Cc1nc(OCC2CCCO2)c2c(-c3ccncc3)c[nH]c2n1` (stereo not drawn) [Example 14, 2-methyl-5-(pyridin-4-yl)-4-(tetrahydrofuran-2-ylmethoxy)-7H-pyrrolo[2,3-d]pyrimidine] gave an IC50 of 0.043 µM.
`C=C(C)c1nc(NCc2c(F)cccc2F)c2c(-c3ccnc(N)c3)c[nH]c2n1` [Example 149, 5-(2-aminopyridin-4-yl)-N-(2,6-difluorobenzyl)-2-(prop-1-en-2-yl)-7H-pyrrolo[2,3-d]pyrimidin-4-amine] gave an IC50 of 0.734 µM.
With `Cc1nc(NCCC(F)(F)F)c2c(-c3ccnc(N)c3)c[nH]c2n1` [Example 100, 5-(2-aminopyridin-4-yl)-2-methyl-N-(3,3,3-trifluoropropyl)-7H-pyrrolo[2,3-d]pyrimidin-4-amine] the IC50 was 0.161 µM.
Work on `Cc1nc(N2CCC(C(F)(F)F)CC2)c2c(-c3ccnc(N)c3)c[nH]c2n1` [Example 105, 4-{2-methyl-4-[4-(trifluoromethyl)piperidin-1-yl]-7H-pyrrolo[2,3-d]pyrimidin-5-yl}pyridin-2-amine] yielded an IC50 of 0.121 µM.
`Cc1nc(NCc2cccnc2)c2c(-c3ccnc(N)c3)c[nH]c2n1` [Example 34, 5-(2-aminopyridin-4-yl)-2-methyl-N-(pyridin-3-ylmethyl)-7H-pyrrolo[2,3-d]pyrimidin-4-amine] was tested, and the IC50 was 0.278 µM.
For `Cc1nc([C@H]2CCc3ccccc3C2)c2c(-c3ccnc(N)c3)c[nH]c2n1` [Example 189], the IC50 was 0.062 µM.
Work on `COc1cccnc1C(C)Nc1nc(C)nc2[nH]cc(-c3ccnc(N)c3)c12` (stereo not drawn) [Example 113, 5-(2-aminopyridin-4-yl)-N-[1-(3-methoxypyridin-2-yl)ethyl]-2-methyl-7H-pyrrolo[2,3-d]pyrimidin-4-amine] yielded an IC50 of 0.114 µM.
`COc1cccc(C(F)(F)F)c1CNc1nc(C)nc2[nH]cc(-c3ccnc(C)c3)c12` [Example 146, N-[2-methoxy-6-(trifluoromethyl)benzyl]-2-methyl-5-(2-methylpyridin-4-yl)-7H-pyrrolo[2,3-d]pyrimidin-4-amine] gave an IC50 of 0.172 µM.
Compound `Cc1cc(-c2c[nH]c3nc(C)nc(NCc4cc(C)on4)c23)ccn1` [Example 47, 2-methyl-N-[(5-methyl-1,2-oxazol-3-yl)methyl]-5-(2-methylpyridin-4-yl)-7H-pyrrolo[2,3-d]pyrimidin-4-amine] has an IC50 of 0.372 µM.
Compound `Cc1nc(N2CCOCC2)c2c(-c3ccnc(N)c3)c[nH]c2n1` [Example 134, 4-[2-methyl-4-(morpholin-4-yl)-7H-pyrrolo[2,3-d]pyrimidin-5-yl]pyridin-2-amine] has an IC50 of 0.848 µM.
Work on `C#Cc1nc(-c2ccc3c(c2)OCO3)c2c(-c3ccnc(N)c3)c[nH]c2n1` [Example 156, 4-[4-(1,3-benzodioxol-5-yl)-2-ethynyl-7H-pyrrolo[2,3-d]pyrimidin-5-yl]pyridin-2-amine] yielded an IC50 of 0.029 µM.
In the case of `Cc1nc(-c2cccc(OCCCN3CCOCC3)c2)c2c(-c3ccnc(N)c3)c[nH]c2n1` [Example 174, 4-(2-methyl-4-{3-[3-(morpholin-4-yl)propoxy]phenyl}-7H-pyrrolo[2,3-d]pyrimidin-5-yl)pyridin-2-amine], the IC50 is reported as 0.07 µM.
Work on `Cc1nc(NCc2cncs2)c2c(-c3ccnc(N)c3)c[nH]c2n1` [Example 41, 5-(2-aminopyridin-4-yl)-2-methyl-N-(1,3-thiazol-5-ylmethyl)-7H-pyrrolo[2,3-d]pyrimidin-4-amine] yielded an IC50 of 0.158 µM.
`Cc1nc(NCc2ccc(-c3ccccn3)s2)c2c(-c3ccnc(N)c3)c[nH]c2n1` [Example 87, 5-(2-aminopyridin-4-yl)-2-methyl-N-{[5-(pyridin-2-yl)thiophen-2-yl]methyl}-7H-pyrrolo[2,3-d]pyrimidin-4-amine] was tested, and the IC50 was 1.94 µM.
`Cc1nc(-c2cc(F)cc(F)c2)c2c(-c3ccnc(N)c3)c[nH]c2n1` [Example 180] gave an IC50 of 0.079 µM.
Compound `COc1ccc(COc2nc(C)nc3[nH]cc(-c4ccnc(N)c4)c23)cc1` [Example 26, 4-{4-[(4-methoxybenzyl)oxy]-2-methyl-7H-pyrrolo[2,3-d]pyrimidin-5-yl}pyridin-2-amine] has an IC50 of 0.029 µM.
Compound `Cc1nc(NC(C)c2ccccc2)c2c(-c3ccnc(N)c3)c[nH]c2n1` (stereo not drawn) [Example 49, 5-(2-aminopyridin-4-yl)-2-methyl-N-(1-phenylethyl)-7H-pyrrolo[2,3-d]pyrimidin-4-amine] has an IC50 of 0.127 µM.
`Cc1nc(N2CCCC(C)C2)c2c(-c3ccnc(N)c3)c[nH]c2n1` (stereo not drawn) [Example 97, 4-[2-methyl-4-{3-methylpiperidin-1-yl)-7H-pyrrolo[2,3-d]pyrimidin-5-yl]pyridin-2-amine] was tested, and the IC50 was 0.063 µM.
For `Cc1nc(N2CCC(N(C)C)C2)c2c(-c3ccnc(N)c3)c[nH]c2n1` (stereo not drawn) [Example 31, 4-{4-[3-(dimethylamino)pyrrolidin-1-yl]-2-methyl-7H-pyrrolo[2,3-d]pyrimidin-5-yl}pyridin-2-amine], the IC50 was 1.07 µM.
`Cc1nc(NCc2ccccc2)c2c(-c3ccncc3)c[nH]c2n1` [Example 42, N-benzyl-2-methyl-5-(pyridin-4-yl)-7H-pyrrolo[2,3-d]pyrimidin-4-amine] gave an IC50 of 0.233 µM.
Compound `Cc1nc(N2CCn3ccnc3C2)c2c(-c3ccnc(N)c3)c[nH]c2n1` [Example 135, 4-[4-(5,6-dihydroimidazo[1,2-a]pyrazin-7(8H)-yl)-2-methyl-7H-pyrrolo[2,3-d]pyrimidin-5-yl]pyridin-2-amine] has an IC50 of 0.091 µM.
Work on `Cc1nc(-c2ccc(CN3CCCC3)cc2)c2c(-c3ccnc(N)c3)c[nH]c2n1` [Example 165] yielded an IC50 of 0.301 µM.
In the case of `C=Cc1nc(NCc2c(F)cccc2F)c2c(-c3ccnc(N)c3)c[nH]c2n1` [Example 151, 5-(2-aminopyridin-4-yl)-N-(2,6-difluorobenzyl)-2-ethenyl-7H-pyrrolo[2,3-d]pyrimidin-4-amine], the IC50 is reported as 0.028 µM.
For `N#Cc1cc(-c2ccc3c(c2)OCO3)c2c(-c3ccnc(N)c3)c[nH]c2n1` [Example 223, 3-(2-aminopyridin-4-yl)-4-(1,3-benzodioxol-5-yl)-1H-pyrrolo[2,3-b]pyridine-6-carbonitrile], the IC50 was 0.043 µM.
`Cc1nc(-c2cccc(OCCN3CCCC3)c2)c2c(-c3ccnc(N)c3)c[nH]c2n1` [Example 202] gave an IC50 of 0.144 µM.
Compound `C#Cc1nc(-c2ccc3c(c2)OCO3)c2c(-c3cc(N)nc(N)c3)c[nH]c2n1` [Example 155, 4-[4-(1,3-benzodioxol-5-yl)-2-ethynyl-7H-pyrrolo[2,3-d]pyrimidin-5-yl]pyridine-2,6-diamine] has an IC50 of 0.024 µM.
For `Cc1nc(N2CCC2c2ccccc2)c2c(-c3ccnc(N)c3)c[nH]c2n1` (stereo not drawn) [Example 103, 4-[2-methyl-4-(2-phenylazetidin-1-yl)-7H-pyrrolo[2,3-d]pyrimadin-5-yl]pyridin-2-amine], the IC50 was 0.694 µM.
In the case of `Cc1nc(N2CC[C@H]3CCCC[C@@H]3C2)c2c(-c3ccnc(N)c3)c[nH]c2n1` [Example 111, 4-{2-methyl-4-[(4aR,8aS)-octahydro-isoquinolin-2(1H)-yl]-7H-pyrrolo[2,3-d]pyrimidin-5-yl}pyridin-2-amine], the IC50 is reported as 0.013 µM.
For `Cc1cc(-c2ccc3c(c2)N(C)CCO3)c2c(-c3ccnc(N)c3)c[nH]c2n1` [Example 225, 4-[6-methyl-4-(4-methyl-3,4-dihydro-2H-1,4-benzoxazin-6-yl)-1H-pyrrolo[2,3-b]pyridin-3-yl]pyridin-2-amine], the IC50 was 0.037 µM.
Compound `Cc1nc(N[C@@H](C)c2ncccc2F)c2c(-c3ccnc(N)c3)c[nH]c2n1` [Example 122, 5-(2-aminopyridin-4-yl)-N-[(1S)-1-(3-fluoropyridin-2-yl)ethyl]-2-methyl-7H-pyrrolo[2,3-d]pyrimidin-4-amine] has an IC50 of 0.05 µM.
